According to PubChem BioAssay AID248 (DTP/NCI, 2004):
Where “and” joins values, the source holds several entries; their conditions need not be identical. Equal entries are not always repeated. Toxic doses and inconclusive results are not listed. No stated cut-off is given here; in the data, active means T/C of 150% or more; inactive means T/C below 125%.

Tested on: L1210 leukemia ip in BDF1 mice, survival T/C
Assay: NCI In Vivo Anticancer Drug Screen. Data for tumor model L1210 Leukemia (intraperitoneal) in B6D2F1 (BDF1) mice
Settings: endpoint: mean survival time, higher = longer survival
Outline: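 Tumor cells were implanted, animals were treated, and survival was followed. The result divides the treated measurement by the vehicle-control measurement.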

[1] = dose: 100.0 mg/kg/injection, schedule: Q04DX003 (ip), vehicle: other
[2] = dose: 200.0 mg/kg/injection, schedule: Q04DX003 (ip), vehicle: other
[3] = dose: 400.0 mg/kg/injection, schedule: Q04DX003 (ip), vehicle: other
[4] = dose: 100.0 mg/kg/injection, schedule: Q04DX003 (ip), vehicle: Klucel (hydroxypropylcellulose) (HPC)
[5] = dose: 200.0 mg/kg/injection, schedule: Q04DX003 (ip), vehicle: Klucel (hydroxypropylcellulose) (HPC)
[6] = dose: 400.0 mg/kg/injection, schedule: Q04DX003 (ip), vehicle: Klucel (hydroxypropylcellulose) (HPC)
[7] = dose: 100.0 mg/kg/injection, schedule: Q01DX001 (ip), vehicle: saline
[8] = dose: 200.0 mg/kg/injection, schedule: Q01DX001 (ip), vehicle: saline
[9] = dose: 400.0 mg/kg/injection, schedule: Q01DX001 (ip), vehicle: saline
[10] = dose: 100.0 mg/kg/injection, schedule: Q01DX009 (ip), vehicle: Klucel (hydroxypropylcellulose) (HPC)
[11] = dose: 200.0 mg/kg/injection, schedule: Q01DX009 (ip), vehicle: Klucel (hydroxypropylcellulose) (HPC)
[12] = dose: 100.0 mg/kg/injection, schedule: Q01DX009 (ip), vehicle: saline with Tween-80
[13] = dose: 200.0 mg/kg/injection, schedule: Q01DX009 (ip), vehicle: saline with Tween-80
[14] = dose: 100.0 mg/kg/injection, schedule: Q04DX003 (ip), vehicle: saline with Tween-80
[15] = dose: 400.0 mg/kg/injection, schedule: Q04DX003 (ip), vehicle: saline with Tween-80
[16] = dose: 200.0 mg/kg/injection, schedule: Q04DX003 (ip), vehicle: saline with Tween-80
[17] = dose: 400.0 mg/kg/injection, schedule: Q01DX009 (ip), vehicle: saline with Tween-80
[18] = dose: 200.0 mg/kg/injection, schedule: Q01DX001 (ip), vehicle: carboxymethylcellulose (CMC)

Measured: T/C

C=CCCCCCCCCC(=O)N/N=C/c1ccc(NC(C)=O)cc1
inactive: dose: 12.5 mg/kg/injection, schedule: Q01DX001 (ip), vehicle: other 90 % of control | dose: 12.5 mg/kg/injection, schedule: Q01DX009 (ip), vehicle: other 95 % of control and 96 % of control | dose: 12.5 mg/kg/injection, schedule: Q04DX003 (ip), vehicle: other 96 % of control | dose: 25.0 mg/kg/injection, schedule: Q01DX001 (ip), vehicle: other 91 % of control | dose: 25.0 mg/kg/injection, schedule: Q01DX009 (ip), vehicle: other 114 % of control and 92 % of control | dose: 25.0 mg/kg/injection, schedule: Q04DX003 (ip), vehicle: other 102 % of control | dose: 50.0 mg/kg/injection, schedule: Q01DX009 (ip), vehicle: carboxymethylcellulose (CMC) 98 % of control and 100 % of control | dose: 50.0 mg/kg/injection, schedule: Q04DX003 (ip), vehicle: other 93 % of control | dose: 100.0 mg/kg/injection, schedule: Q01DX009 (ip), vehicle: carboxymethylcellulose (CMC) 96 % of control | dose: 100.0 mg/kg/injection, schedule: Q01DX009 (ip), vehicle: other 98 % of control | dose: 100.0 mg/kg/injection, schedule: Q04DX002 (ip), vehicle: carboxymethylcellulose (CMC) 90 % of control | [1] 94 % of control | dose: 200.0 mg/kg/injection, schedule: Q01DX009 (ip), vehicle: carboxymethylcellulose (CMC) 100 % of control and 92 % of control | dose: 200.0 mg/kg/injection, schedule: Q01DX009 (ip), vehicle: other 89 % of control | dose: 200.0 mg/kg/injection, schedule: Q04DX002 (ip), vehicle: Klucel (hydroxypropylcellulose) (HPC) 114 % of control | dose: 200.0 mg/kg/injection, schedule: Q04DX002 (ip), vehicle: carboxymethylcellulose (CMC) 90 % of control | [2] 92 % of control | dose: 400.0 mg/kg/injection, schedule: Q04DX002 (ip), vehicle: carboxymethylcellulose (CMC) 92 % of control | [3] 86 % of control

CCOC(=O)c1cnc(SC)nc1NC
inactive: [4] 97 % of control | [5] 99 % of control | [6] 111 % of control

CCOC(=O)NC(CC)NC(=O)OCC
inactive: [7] 101 % of control | [8] 103 % of control | [9] 97 % of control

CCOP(=O)(CCN(C(C)C)C(C)C)OCC
inactive: dose: 50.0 mg/kg/injection, schedule: Q01DX009 (ip), vehicle: Klucel (hydroxypropylcellulose) (HPC) 100 % of control | [10] 100 % of control | [4] 88 % of control | [11] 93 % of control

COc1ccc(OC(=O)OCc2ccccc2)cc1
inactive: [4] 101 % of control | [5] 101 % of control | [6] 109 % of control

CC(=O)OC1CCC2(C)C(C)CC3C(=O)OC32C1 (stereo not given)
inactive: dose: 100.0 mg/kg/injection, schedule: Q04DX003 (ip), vehicle: acetone 87 % of control | dose: 200.0 mg/kg/injection, schedule: Q04DX003 (ip), vehicle: acetone 90 % of control

CN(C)c1ccc(/C=C/c2ccc([N+](=O)[O-])cc2[N+](=O)[O-])c(Cl)c1
inactive: dose: 50.0 mg/kg/injection, schedule: Q01DX009 (ip), vehicle: saline with Tween-80 88 % of control | [12] 100 % of control | [13] 91 % of control

Cc1c(C)c2c(c(C)c1O)CCC(C)(CCCC(C)CCCC(C)CCCC(C)C)O2 (stereo not given)
inactive: dose: 31.2 mg/kg/injection, schedule: Q01DX009 (ip), vehicle: carboxymethylcellulose (CMC) 107 % of control | dose: 62.5 mg/kg/injection, schedule: Q01DX009 (ip), vehicle: carboxymethylcellulose (CMC) 101 % of control | [14] 91 % of control | dose: 125.0 mg/kg/injection, schedule: Q01DX009 (ip), vehicle: carboxymethylcellulose (CMC) 100 % of control | dose: 202.0 mg/kg/injection, schedule: Q04DX003 (ip), vehicle: saline with Tween-80 91 % of control | dose: 250.0 mg/kg/injection, schedule: Q01DX009 (ip), vehicle: carboxymethylcellulose (CMC) 100 % of control | [15] 93 % of control

COc1ccc2c(=O)c(C)c(C)oc2c1CN1CCOCC1
inactive: dose: 0.78 mg/kg/injection, schedule: Q01DX009 (ip), vehicle: saline 94 % of control | dose: 1.56 mg/kg/injection, schedule: Q01DX009 (ip), vehicle: saline 98 % of control | dose: 3.12 mg/kg/injection, schedule: Q01DX009 (ip), vehicle: saline 107 % of control | dose: 6.25 mg/kg/injection, schedule: Q01DX009 (ip), vehicle: saline 100 % of control

Cn1c2ccc(Cl)cc2c2nnc(NCCCO)nc21
inactive: dose: 100.0 mg/kg/injection, schedule: Q04DX002 (ip), vehicle: saline 97 % of control | dose: 200.0 mg/kg/injection, schedule: Q04DX002 (ip), vehicle: saline 89 % of control | dose: 400.0 mg/kg/injection, schedule: Q04DX002 (ip), vehicle: saline 93 % of control

NC(N1CC1)(C(F)(F)F)C(F)(F)F
inactive: dose: 20.0 mg/kg/injection, schedule: Q01DX001 (ip), vehicle: saline 100 % of control | dose: 20.0 mg/kg/injection, schedule: Q04DX003 (ip), vehicle: saline 102 % of control | dose: 40.0 mg/kg/injection, schedule: Q01DX001 (ip), vehicle: saline 111 % of control | dose: 40.0 mg/kg/injection, schedule: Q04DX003 (ip), vehicle: saline 102 % of control | dose: 80.0 mg/kg/injection, schedule: Q01DX001 (ip), vehicle: saline 102 % of control | dose: 80.0 mg/kg/injection, schedule: Q04DX003 (ip), vehicle: saline 94 % of control

CCCCCCCCCCCCCCCCCCOc1ccc(Sc2ccc([N+](=O)[O-])cc2)cc1
inactive: [4] 87 % of control | [5] 88 % of control | [6] 88 % of control

OCCSc1ccccc1
inactive: [1] 97 % of control | [2] 103 % of control | [3] 93 % of control

CC(C)(C)C(=O)[CH-]C(=O)C(C)(C)C.CC(C)(C)C(=O)[CH-]C(=O)C(C)(C)C.CC(C)(C)C(=O)[CH-]C(=O)C(C)(C)C.CN(C)C=O.[Er+3]
inactive: dose: 100.0 mg/kg/injection, schedule: Q04DX002 (ip), vehicle: saline with Tween-80 105 % of control | dose: 200.0 mg/kg/injection, schedule: Q04DX002 (ip), vehicle: saline with Tween-80 94 % of control | dose: 400.0 mg/kg/injection, schedule: Q04DX002 (ip), vehicle: saline with Tween-80 94 % of control

Oc1ccc(C2N(c3ccccc3)CCN2c2ccccc2)cc1
inactive: [12] 111 % of control | [14] 92 % of control | [13] 103 % of control | [16] 97 % of control | [17] 89 % of control | [15] 101 % of control

CCCCOC(c1ccccc1)N1CCCCC1 (stereo not given)
inactive: [18] 95 % of control

NCCc1ccc(NC(=O)c2ccc(C(=O)Nc3ccc(CCN)cc3)c([N+](=O)[O-])c2)cc1
inactive: dose: 1.56 mg/kg/injection, schedule: Q01DX015 (ip), vehicle: methylcellulose (MC) 94 % of control | dose: 3.12 mg/kg/injection, schedule: Q01DX015 (ip), vehicle: methylcellulose (MC) 94 % of control | dose: 6.25 mg/kg/injection, schedule: Q01DX015 (ip), vehicle: methylcellulose (MC) 94 % of control | dose: 12.5 mg/kg/injection, schedule: Q01DX015 (ip), vehicle: methylcellulose (MC) 98 % of control and 92 % of control | dose: 25.0 mg/kg/injection, schedule: Q01DX015 (ip), vehicle: methylcellulose (MC) 104 % of control

CCOC(=O)OCCCN(C)C
inactive: [12] 94 % of control | [14] 100 % of control | [13] 94 % of control | [16] 93 % of control | [17] 90 % of control | [15] 96 % of control

Cc1cc(C)c(-c2c(Br)c(OC(=O)c3ccc([N+](=O)[O-])cc3)c(-c3c(C)cc(C)c(Br)c3C)c(Br)c2OC(=O)c2ccc([N+](=O)[O-])cc2)c(C)c1Br
inactive: [10] 101 % of control | [4] 104 % of control | [11] 97 % of control | [5] 96 % of control | dose: 400.0 mg/kg/injection, schedule: Q01DX009 (ip), vehicle: Klucel (hydroxypropylcellulose) (HPC) 100 % of control | [6] 96 % of control

O=C(N/N=C\c1ccccc1Cl)c1ccco1
inactive: dose: 100.0 mg/kg/injection, schedule: Q01DX001 (ip), vehicle: carboxymethylcellulose (CMC) 92 % of control | [18] 86 % of control

CCCCC[Si](C)(C)C
inactive: [7] 103 % of control | [8] 97 % of control | [9] 105 % of control
